Measured values as given in ChEMBL document CHEMBL4765274, “The development of advanced structural framework as multi-target-directed ligands for the treatment of Alzheimer's disease” (Eur J Med Chem, 2020).
Calls of active or inactive are those of the source. The rule behind the calls is not given here.

Experiments:
[1] = Selectivity index, ratio of IC50 for inhibition of equine serum BChE to IC50 for inhibition of electric eel AChE
[2] = Antioxidant activity assessed as trolox equivalent of AAPH radical scavenging activity measured every min for 4 hrs by ORAC-FL assay relative to trolox; type: functional
PC-12 = test: Neuroprotective activity against H2O2-induced cytotoxicity in rat PC-12 cells assessed as decrease in LDH activity at 1 to 10 uM preincubated for 2 hrs followed by H2O2 addition and measured after 24 hrs by LDH assay; type: functional, cell-based; details: dose 1-10 µM, time 26.0 hrs
SH-SY5Y = test: Neuroprotective activity against amyloid beta (1 to 42 residues)-induced cytotoxicity in human SH-SY5Y cells assessed as increase in cell viability at 1 to 10 uM incubated for 48 hrs by MTT assay; type: functional, cell-based; details: dose 1-10 µM
Acetylcholinesterase = Acetylcholinesterase (Homo sapiens, UniProt P22303); test: Mixed type inhibition of human AChE using acetylthiocholine as substrate by Line-weaver Burk plot analysis
Acetylcholinesterase, sequence (P22303 whole entry): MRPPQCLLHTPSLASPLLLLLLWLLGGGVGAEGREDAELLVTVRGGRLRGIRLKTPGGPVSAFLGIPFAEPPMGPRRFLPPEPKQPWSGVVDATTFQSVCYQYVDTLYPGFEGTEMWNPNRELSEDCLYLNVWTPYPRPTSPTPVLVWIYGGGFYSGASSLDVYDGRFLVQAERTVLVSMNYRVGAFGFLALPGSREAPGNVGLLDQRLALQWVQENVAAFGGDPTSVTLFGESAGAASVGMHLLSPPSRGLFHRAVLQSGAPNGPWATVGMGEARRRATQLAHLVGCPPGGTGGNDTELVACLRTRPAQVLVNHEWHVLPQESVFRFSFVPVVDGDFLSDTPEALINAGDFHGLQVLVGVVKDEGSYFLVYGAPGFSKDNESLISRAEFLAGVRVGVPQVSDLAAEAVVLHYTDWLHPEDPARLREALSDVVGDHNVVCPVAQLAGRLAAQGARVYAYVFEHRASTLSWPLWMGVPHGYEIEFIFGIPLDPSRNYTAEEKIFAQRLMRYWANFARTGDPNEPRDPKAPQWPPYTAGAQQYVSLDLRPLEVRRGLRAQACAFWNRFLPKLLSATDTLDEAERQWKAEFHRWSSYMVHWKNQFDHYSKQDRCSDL

[3] = Toxicity in 2 dpf zebra fish assessed as absent blood flow at 25 ug/ml after 3 days relative to control; type: tissue-based, Danio rerio; details: zebrafish, 72 h, at 25 µg/mL, time 3 day
Cholinesterase = Cholinesterase (Homo sapiens, UniProt P06276); test: Inhibition of human BChE assessed as residual activity at IC50 concentration relative to control
Cholinesterase, sequence (P06276 whole entry): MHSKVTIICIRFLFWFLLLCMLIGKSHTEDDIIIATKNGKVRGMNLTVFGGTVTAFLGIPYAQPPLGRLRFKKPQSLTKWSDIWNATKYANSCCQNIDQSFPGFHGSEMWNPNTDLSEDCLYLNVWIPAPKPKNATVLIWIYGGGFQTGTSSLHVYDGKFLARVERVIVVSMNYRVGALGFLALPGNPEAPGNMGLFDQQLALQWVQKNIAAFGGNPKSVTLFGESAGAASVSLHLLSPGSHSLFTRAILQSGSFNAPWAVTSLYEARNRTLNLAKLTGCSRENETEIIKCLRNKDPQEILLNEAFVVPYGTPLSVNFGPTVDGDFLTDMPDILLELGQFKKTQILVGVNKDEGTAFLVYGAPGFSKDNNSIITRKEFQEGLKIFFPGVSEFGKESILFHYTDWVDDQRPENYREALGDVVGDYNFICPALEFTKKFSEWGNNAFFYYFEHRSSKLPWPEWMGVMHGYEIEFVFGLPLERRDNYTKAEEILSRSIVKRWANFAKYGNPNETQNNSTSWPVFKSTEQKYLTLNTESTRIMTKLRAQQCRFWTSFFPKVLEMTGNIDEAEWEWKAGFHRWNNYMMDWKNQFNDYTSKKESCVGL

[4] = Metal chelating activity assessed as Al3+-compound complex formation in methanol at 37.5 uM by UV-Visible spectra analysis
[5] = Metal chelating activity assessed as Fe2+-compound complex formation in methanol at 37.5 uM by UV-Visible spectra analysis
[6] = Metal chelating activity assessed as Fe2+-compound complex formation in water at 37.5 uM by UV-Visible spectra analysis
[7] = Metal chelating activity assessed as Al3+-compound complex formation in water buffer at pH 7.4 at 37.5 uM by UV-Visible spectra analysis
HT-22 [8] = test: Cytotoxicity against mouse HT-22 cells assessed as reduction in cell viability after 24 hrs by MTT assay; type: cell-based; details: HT-22, 24 h
HT-22 [9] = test: Activation of ubiquitin-proteasome system in mouse HT-22 cells expressing pRK5-GFP-Tau P301L mutant assessed as increase in tau degradation by measuring reduction in GFP level after 24 hrs by fluorescence microscopic method; type: cell-based; details: filed as activator, dose 2.5-20 µM
HT-22 [10] = test: Activation of ubiquitin-proteasome system in mouse HT-22 cells expressing pEGFP-N1-APP assessed as increase in APP degradation by measuring reduction in GFP level at 2.5 to 20 uM after 24 hrs by flow cytometric analysis; type: cell-based; details: filed as activator, dose 2.5-20 µM
HT-22 [11] = test: Activation of ubiquitin-proteasome system in mouse HT-22 cells expressing pEGFP-N1-APP assessed as increase in APP degradation by measuring reduction in GFP level at 2.5 to 20 uM after 24 hrs by Western blot analysis; type: cell-based; details: filed as activator, dose 2.5-20 µM
[12] = Toxicity in 2 dpf zebra fish assessed as short or misshapen eye at 25 ug/ml after 3 days relative to control; design: species or system Danio rerio; details: zebrafish, 72 h, at 25 µg/mL, time 3 day
[13] = Toxicity in 2 dpf zebra fish assessed as change in body shape at 25 ug/ml after 3 days relative to control; design: species or system Danio rerio; details: zebrafish, 72 h, at 25 µg/mL, time 3 day
[14] = Toxicity in 3 dpf zebra fish assessed as mortality at 0.78 ug/ml (reference value: 0%); design: species or system Danio rerio; details: zebrafish, at 0.78 µg/mL, read-out: Activity
[15] = Toxicity in 3 dpf zebra fish assessed as mortality at 100 ug/ml (reference value: 0%); design: species or system Danio rerio; details: zebrafish, at 100 µg/mL, read-out: Activity
[16] = Toxicity in 3 dpf zebra fish assessed as pericardium edema at 1.56 ug/ml; design: species or system Danio rerio; details: zebrafish; dose 1.56 µg/ml
[17] = Toxicity in 3 dpf zebra fish assessed as blood flow retardation at 1.56 ug/ml; type: tissue-based, Danio rerio; details: zebrafish, dose 1.56 µg/ml
Danio rerio = species on record: Danio rerio; test: Antialzheimer activity in Alcl3-induced zebra fish AD model assessed as increase dyskinesia recovery rate at 0.78 ug/ml relative to control; type: functional; details: dose 0.78 µg/ml
[18] = Toxicity in Kunming mouse assessed as abnormal behavior up to 5000 mg/kg, po after 14 days; type: organism-based; details: in vivo, 336 h, time 14 day
Mus musculus [19] = test: Antialzheimer activity in scopolamine-induced Kunming mouse model of memory impairment assessed as latency time at 5 mg/kg , po by step-down passive avoidance test (reference value: 125.65 sec); type: functional
Mus musculus [20] = test: Antialzheimer activity in scopolamine-induced Kunming mouse model of memory impairment assessed as latency time at 50 mg/kg , po by step-down passive avoidance test (reference value: 125.65 sec); type: functional
Mus musculus [21] = test: Antialzheimer activity in scopolamine-induced Kunming mouse model of memory impairment assessed as total mapped in brain hippocampus at 5 mg/kg , po by illumina sequencing method (reference value: 97.13%); type: functional

SMILES: CCN(CCCCOc1ccc(-c2cc(=O)c3c(O)cc(OCCCCN(CC)Cc4ccccc4)cc3o2)cc1)Cc1ccccc1
- Ratio IC50 [1]: 2.6
- fold change (FC) [2]: 1.2
- Activity (PC-12): Active
- Activity (SH-SY5Y): Active
- Ki (Acetylcholinesterase): 0.394 µM
- Activity [3]: 53.3%
- Activity (Cholinesterase): 49.7%
- Activity [4]: Active
- Activity [5]: Active
- Activity [6]: inactive
- Activity [7]: inactive
- IC50 (HT-22 [8]): 39.7 µM
- Activity (HT-22 [9]): Dose-dependent effect
- Activity (HT-22 [10]): Active
- Activity (HT-22 [11]): Active
- Activity [12]: 433%
- Activity [13]: 46.7%
- mortality at 0.78 ug/ml [14]: 0%
- mortality at 100 ug/ml [15]: 100%
- Activity [16]: Toxic
- Activity [17]: Toxic
- Activity (Danio rerio): 87%
- Activity [18]: Non-Toxic
- Time (Mus musculus [19]): 261.82 s
- Time (Mus musculus [20]): 227.34 s
- Activity (Mus musculus [21]): 97.39%
